Test results reported in US20150004697A1, “METHOD FOR PRODUCING MULTIPOLAR CELL” (TOAGOSEI CO., LTD., priority 2011, published 2015).

How the values were obtained:
Format in all cases: cell-based
[1] = test system: human alveolar basal epithelial adenocarcinoma cells, A549; assay: Multipolarity-inducing activity assay 3 (A549 cells synchronized in G2 phase (or M phase)); conditions: peptide 10 μM; for Multipolar level (%): 100 M-phase cells; for fluorescence microscope observation of centrosomes and multipolar spindles: DAPI, anti-tubulin and anti-centrin antibody
Protocol: Some of the sample peptides obtained in Example 1 were tested for multipolarity-inducing activity against target cultured tumor cells. Details of the assay are as described below. As the tumor cells tested, cells forming a […] (human alveolar basal epithelial adenocarcinoma cells, A549) were used. The cell line was cultured in the same manner as Example 2 described above. The resulting cultured tumor cells were synchronized in the G2 phase (or M phase) in the same manner as Example 3 described above. Similarly to Examples 2 and 3 described above (although the number of M-phase cells was 100), the presence of multipolarity was observed by immunofluorescence under fluorescence microscope. In addition, using centrin-2 as a marker for centrosomes (centrioles), the cells were tested for the presence of centrin-2 (i.e. the presence of centrosomes) by immunofluorescence with an anti-centrin-2 antibody (primary antibody) to identify the centrin-2 and a fluorescent dye-labeled secondary antibody to identify the primary antibody.

HeLa cell line (HeLa S3) [2] = assay: Multipolarity-inducing activity assay 1 (cells synchronized in G1 phase by double thymidine block); conditions: peptide 10 μM, 6 hours of incubation; for Number of multipolar cells: HeLa S3 synchronized in G1 phase, count among the M-phase cells observed
Protocol: Some of the sample peptides obtained in Example 1 were tested for multipolarity-inducing activity against target cultured tumor cells. Details of the assay are as described below.
As the tumor cells tested, a HeLa cell line (HeLa S3) was used. The cell line was cultured beforehand in a DMEM medium (i.e. Dulbecco MEM medium (DMEM medium, a Gibco product) containing 10% fetal bovine serum (FBS, a Gibco product), 2 mM of L-glutamine, 50 unit/mL of penicillin, and 50 μg/mL of streptomycin), and seeded at about 3×10^4 cells per well in an 8-well slide glass. Thymidine was added to the culture medium to a final concentration of 2.5 mM. Incubation was carried out at 37° C. under 5% CO2 for 16 hours. The culture medium was exchanged to remove thymidine and incubation was carried out for 8 more hours. Subsequently, thymidine was added again to a final concentration of 2.5 mM and incubation was carried out for 16 hours.
By such double thymidine block, the cells being cultured were synchronized in the G1 phase of the cell cycle. After such synchronization treatment, the culture medium was exchanged to remove thymidine and incubation was carried out for 2 more hours. Subsequently, one of the sample peptides was added to each well. In this example, one of Samples 1, 4, 8, 9, 12 and 14 was added to a peptide concentration in the well of 10 μM.
After a sample peptide was added as described above, the 8-well slid glass was incubated under the aforementioned conditions for 6 hours.
After 6 hours of incubation, the presence of multipolarity was observed by immunofluorescence under fluorescence microscope. In particular, after 6 hours of incubation following the addition of a sample peptide, the cultured cells were subjected to nuclear staining with DAPI (4′,6-diamidino-2-phenylindole), and using α-tubulin as a marker for spindles, the cells were tested for the presence of tubulin (i.e., the presence of spindles) by immunofluorescence with an anti-tubulin antibody (primary antibody) to identify the tubulin and a fluorescent dye (ALEXA FLUOR(registered trademark) 555)-labeled secondary antibody to identify the primary antibody.

HeLa cell line (HeLa S3) [3] = assay: Multipolarity-inducing activity assay 2 (cells synchronized in G2 phase (or M phase) by nocodazole); conditions: for Multipolar level (%): peptide 10 μM for 4 hours with nocodazole, then 2 hours without, % of M-phase cells; for Multipolar level (%) / Number of multipolar cells: HeLa S3 synchronized in G2 phase (M phase); for Number of multipolar cells / fluorescence microscope observation of centrosomes and multipolar spindles: peptide 10 μM; for Number of multipolar cells: count among 75 M-phase cells; for fluorescence microscope observation of centrosomes and multipolar spindles: HeLa synchronized in G2 phase (or M phase) by nocodazole, DAPI and anti-tubulin antibody
Protocol: The same sample peptides as those used in Example 2 above were used and tested for multipolarity-inducing activity against cultured tumor cells synchronized in the G2 phase (or M phase). Details of the assay are as described below.
As the tumor cells tested, a HeLa cell line (HeLa S3) was used. The cell line was cultured under the same conditions as Example 2 and seeded at about 3×10^4 cells per well in an 8-well slide glass. Thymidine was added to the culture medium to a final concentration of 2.5 mM. Incubation was carried out at 37° C. under 5% CO2 for 18 hours. The culture medium was exchanged to remove thymidine and incubation was carried out for 6 more hours. Subsequently, nocodazole was added to a final concentration of 0.1 μg/mL and incubation was carried out for 16 hours. By such addition of nocodazole, the cells being cultured were synchronized in the G2 phase (M phase) of the cell cycle.
After the 16 hours of incubation, without exchanging the culture medium (i.e. with nocodazole being contained), one of the sample peptides was added to each well to a peptide concentration in the well of 10 μM and incubation was carried out for 4 hours. Subsequently, the culture medium was exchanged and incubation was continued for 2 more hours without nocodazole or the sample peptide.
After the 2 hours of incubation, in the same manner as Example 2, the presence of multipolarity was observed by immunofluorescence under fluorescence microscope.

With “CLAPSPSKCKKRFLRKNDRKKR (CLAPSPSKCKKRTLRKNDRKKR) [Sample 14]” the “Multipolar level (%)” value [1] was 38%, the “Number of multipolar cells” value (HeLa cell line (HeLa S3) [2]) was 10 and the “Multipolar level (%)” value (HeLa cell line (HeLa S3) [3]) was 61.3%. For the same sequence, the “Number of multipolar cells” value (HeLa cell line (HeLa S3) [3]) was 46.
For CTGHWASEC [Sample 10], the “Multipolar level (%)” value [1] was 31%.
With CGHRPYQYC [Sample 4] the “Multipolar level (%)” value [1] was 36%, the “Number of multipolar cells” value (HeLa cell line (HeLa S3) [2]) was 6 and the “Multipolar level (%)” value (HeLa cell line (HeLa S3) [3]) was 62.7%. For the same sequence, the “Number of multipolar cells” value (HeLa cell line (HeLa S3) [3]) was 47.
In the case of CSYEKRPMC [Sample 11], the “fluorescence microscope observation of centrosomes and multipolar spindles” value (from here on “fluorescence microscope observation”) [1] is reported as 3 or more (typically 4 or more, e.g. 8 or more) centrosomes formed in many cells.
With CSSATGKSC [Sample 1] the “Multipolar level (%)” value (HeLa cell line (HeLa S3) [2]; HeLa S3 synchronized in G1 phase (double thymidine block), % multipolar cells relative to M-phase cells) was 8.3%, the “Number of multipolar cells” value (HeLa cell line (HeLa S3) [2]) was 7 and the “Multipolar level (%)” value (HeLa cell line (HeLa S3) [3]) was 62.7%. For the same sequence, the “Number of multipolar cells” value (HeLa cell line (HeLa S3) [3]) was 47.
In the case of CHILHAQAC [Sample 8], the “Multipolar level (%)” value [1] is reported as 36%, the “Number of multipolar cells” value (HeLa cell line (HeLa S3) [2]) is reported as 11 and the “Multipolar level (%)” value (HeLa cell line (HeLa S3) [3]) is reported as 68.0%. The “Number of multipolar cells” value (HeLa cell line (HeLa S3) [3]) was 51.
With CLTKSYTSC [Sample 12] the “Number of multipolar cells” value (HeLa cell line (HeLa S3) [2]) was 13, the “Multipolar level (%)” value (HeLa cell line (HeLa S3) [3]) was 64.0% and the “Number of multipolar cells” value (HeLa cell line (HeLa S3) [3]) was 48. For the same sequence, the “fluorescence microscope observation” value (HeLa cell line (HeLa S3) [3]) was 3 or more centrosomes formed in many cells.
For CTLNSHSNC [Sample 6], the “Multipolar level (%)” value [1] was 30% and the “fluorescence microscope observation” value [1] was 3 or more (typically 4 or more, e.g. 8 or more) centrosomes formed in many cells.
With CLAPSPSKC [Sample 2] the “Multipolar level (%)” value [1] was 38%.
With CEISAKRTC [Sample 7] the “Multipolar level (%)” value [1] was 36%.
In the case of CPRPPSLEC [Sample 9], the “Number of multipolar cells” value (HeLa cell line (HeLa S3) [2]) is reported as 19, the “Multipolar level (%)” value (HeLa cell line (HeLa S3) [3]) is reported as 73.3% and the “Number of multipolar cells” value (HeLa cell line (HeLa S3) [3]) is reported as 55. For the same sequence, the “fluorescence microscope observation” value (HeLa cell line (HeLa S3) [3]) was 3 or more centrosomes formed in many cells and a cell with a particularly high degree of multipolarity.
